According to article PMC4109950, “Novel Small Molecule XPO1/CRM1 Inhibitors Induce Nuclear Accumulation of TP53, Phosphorylated MAPK and Apoptosis in Human Melanoma Cells” (PLoS ONE, 2014):

Columns and labels:
[1] = tested on: A375; experiment: Cellular growth assay (MTS), 72 h; type: cell-based, human; settings: A375, 72 hr treatment, read-out: Growth Inhibition IC50
Procedure: (§1) Cells were seeded in 96-well plates (2×10^4) in triplicate and allowed to adhere overnight. Fresh media containing KPT-185, KPT-185-trans, KPT-276, or KPT-330 was added to each well at various concentrations (range = 40–10240 nM) and cells were incubated at 37°C/5% CO2 for 72 hours. Cells treated with DMSO (diluent) and untreated cells served as controls. At this time, the percentage of cell growth was evaluated using the MTS assay (CellTiter 96 AQueous Non-Radioactive Cell Proliferation Assay, Promega) and quantified by determining the optical density at 595 nm using a Bio-Rad iMark™ microplate reader. The 4-parameter logistic or Hill model was the assumed dose-response relationship for the in vitro inhibition and cell viability experiments. Nonlinear least squares regression was used to estimate the model parameters and generate 95% confidence intervals for the IC50 estimates. For in vivo experiments, tumor volumes were first log-transformed to meet test assumptions of normality and homoscedasticity. Changes in tumor volumes were analyzed using a two-sample t-test to evaluate the difference from first day of treatment to the last for A375 xenografts (day 17), and from day 1 to day 10 for CHL-1 xenografts as day 10 marks the first mouse sacrificed when 1500 mm^3 tumor volume was reached. ANOVA was used to compare the expression of XPO1 staining among samples from the melanoma tissue core array. The Wilcoxon rank-sum test was used to analyze data comparing growth inhibition and apoptosis of the five metastatic melanoma cell lines to the three melanocyte cell lines.

[2] = tested on: CHL-1; experiment: Cellular growth assay (MTS), 72 h; type: cell-based, human; settings: Homo sapiens, CHL-1, 72 hr treatment, read-out: Growth Inhibition IC50
Procedure: as §1

[3] = tested on: FO-1; experiment: Cellular growth assay (MTS), 72 h; type: cell-based, human; settings: FO-1, 72 hr treatment, read-out: Growth Inhibition IC50
Procedure: as §1

[4] = tested on: HEMn-DP; experiment: Cellular growth assay (MTS), 72 h; type: cell-based, human; settings: HEMn-DP primary melanocytes, highest concentration 10240 nM
Procedure: as §1

[5] = tested on: HEMn-MP; experiment: Cellular growth assay (MTS), 72 h; type: cell-based, human; settings: HEMn-MP primary melanocytes, highest concentration 10240 nM
Procedure: as §1

[6] = tested on: HEM-l; experiment: Cellular growth assay (MTS), 72 h; type: cell-based; settings: Homo sapiens, Melanocyte, HEM-l primary melanocytes, 72 hr treatment, read-out: Growth Inhibition IC50
Procedure: as §1

[7] = tested on: Hs294T; experiment: Cellular growth assay (MTS), 72 h; type: cell-based; settings: Homo sapiens, Hs 294T, 72 hr treatment, read-out: Growth Inhibition IC50
Procedure: as §1

[8] = tested on: Wm1366; experiment: Cellular growth assay (MTS), 72 h; type: cell-based; settings: Homo sapiens, Wm1366, 72 hr treatment, read-out: Growth Inhibition IC50
Procedure: as §1

[9] = tested on: A375; experiment: Apoptosis via Annexin V/PI staining, flow cytometry; type: cell-based; settings: Homo sapiens, A-375, A375, 72 hr treatment
Procedure: (§2) Phosphatidyl serine exposure was assessed in tumor cells and melanocytes by flow cytometry using APC-Annexin V and propidium iodide (PI; BD Pharmingen, San Diego, CA) as previously described. Each analysis was performed utilizing at least 10,000 events. We considered the Annexin V positive cells (early apoptosis) and Annexin V/PI double positive cells (late apoptosis) cells as the apoptotic cell population. The 4-parameter logistic or Hill model was the assumed dose-response relationship for the in vitro inhibition and cell viability experiments. Nonlinear least squares regression was used to estimate the model parameters and generate 95% confidence intervals for the IC50 estimates. For in vivo experiments, tumor volumes were first log-transformed to meet test assumptions of normality and homoscedasticity. Changes in tumor volumes were analyzed using a two-sample t-test to evaluate the difference from first day of treatment to the last for A375 xenografts (day 17), and from day 1 to day 10 for CHL-1 xenografts as day 10 marks the first mouse sacrificed when 1500 mm^3 tumor volume was reached. ANOVA was used to compare the expression of XPO1 staining among samples from the melanoma tissue core array. The Wilcoxon rank-sum test was used to analyze data comparing growth inhibition and apoptosis of the five metastatic melanoma cell lines to the three melanocyte cell lines.

[10] = tested on: CHL-1; experiment: as above; type: cell-based; settings: Homo sapiens, CHL-1, 72 hr treatment
Procedure: as §2

[11] = tested on: FO-1; experiment: as above; type: cell-based; settings: Homo sapiens, FO-1, 72 hr treatment
Procedure: as §2

[12] = tested on: HEM-l; experiment: as above; type: cell-based; settings: Homo sapiens, Melanocyte, HEM-l primary melanocytes, 72 hr treatment
Procedure: as §2

[13] = tested on: Hs294T; experiment: as above; type: cell-based; settings: Homo sapiens, Hs 294T, 72 hr treatment
Procedure: as §2

[14] = tested on: Wm1366; experiment: as above; type: cell-based; settings: Homo sapiens, Wm1366, 72 hr treatment
Procedure: as §2

[15] = tested on: HEMn-DP; experiment: as above; type: cell-based, human; settings: HEMn-DP primary melanocytes, 72 hr, range 0–10.24 µM
Procedure: as §2

[16] = tested on: HEMn-MP; experiment: as above; type: cell-based, human; settings: HEMn-MP primary melanocytes, 72 hr, range 0–10.24 µM
Procedure: as §2

[17] = tested on: A375; experiment: Cell cycle assay (PI, flow cytometry); type: cell-based, human; settings: A375, 1 µM, 24 h or 48 hr, PI staining
Procedure: (§3) Cell-cycle analysis was conducted using propidium iodide (PI) following the manufacturer's protocol (BD Pharmigen). Cells were plated in 6-well plates and treated for 24 h or 48 hr with 1 µM of KPT-185. A total of 1×10^5 cells per analysis were examined by flow cytometry (FACSCalibur), and analyzed using ModFit LT 3.3.

[18] = tested on: CHL-1; experiment: Cell cycle assay (PI, flow cytometry); type: cell-based, human; settings: CHL-1, 1 µM, 24 h or 48 hr, PI staining
Procedure: as §3

[19] = tested on: A375; experiment: Subcellular fractionation and immunoblot analysis; type: cell-based, human
Procedure: (§4) Human melanoma cell lines were seeded in 6-well plates (2×10^5) and allowed to adhere overnight. After treatment for various time points, the cells were harvested then fractionated using NE-PER Nuclear and Cytoplasmic Extraction Reagents from Thermo Scientific following the manufacturer's protocol. Nuclear and cytoplasmic fractions were validated via immunoblot analysis using Lamin B and GAPDH antibodies. Immunoblots were prepared as previously described and probed with antibodies specific for TP53, CDKN1A (p21), XPO1, HDM2 (MDM2), Lamin B (Santa Cruz Biotechnology, Santa Cruz, CA), pMAPK, PARP (Cell Signaling Technology), GAPDH or β-actin (Sigma). Following incubation with the appropriate horseradish peroxidase-conjugated secondary antibody, immune complexes were detected using the ECL Plus detection kit (Amersham Biosciences, Ayesbury, UK).

[20] = tested on: CHL-1; experiment: Subcellular fractionation and immunoblot analysis; type: cell-based, human
Procedure: as §4

[21] = tested on: melanoma cell lines; experiment: Immunoblot analysis of PARP cleavage; type: cell-based, human; settings: KPT-185 at the IC50 for apoptosis for each cell line
Procedure: Immunoblots were prepared as previously described and probed with antibodies specific for TP53, CDKN1A (p21), XPO1, HDM2 (MDM2), Lamin B (Santa Cruz Biotechnology, Santa Cruz, CA), pMAPK, PARP (Cell Signaling Technology), GAPDH or β-actin (Sigma). Following incubation with the appropriate horseradish peroxidase-conjugated secondary antibody, immune complexes were detected using the ECL Plus detection kit (Amersham Biosciences, Ayesbury, UK).

[22] = Homo sapiens, Melanocyte, read-out: Growth Inhibition IC50

Q: With `COc1cc(-c2ncn(/C=C\C(=O)OC(C)C)n2)cc(C(F)(F)F)c1` [KPT-185] as the compound, how does the IC50 [1] read?
A: 0.0459 µM

Q: What about the IC50 ([1]; Homo sapiens, A-375, 72 h) of the same compound?
A: ~0.05 µM

Q: And the IC50 [2]?
A: 0.592 µM

Q: And the IC50 [3]?
A: 0.0321 µM

Q: What about the IC50 ([3]; Homo sapiens, 72 h) of the same compound?
A: ~0.05 µM

Q: And the “Growth Inhibition IC50” value [4]?
A: Not achieved

Q: What about the IC50 [4, 22] of the same compound?
A: > 10.2 µM

Q: And the “Growth Inhibition IC50” value [5]?
A: Not achieved

Q: What about the IC50 [5, 22] of the same compound?
A: > 10.2 µM

Q: What about the IC50 [6] of the same compound?
A: 4.13 µM

Q: What about the IC50 [7] of the same compound?
A: 0.0489 µM

Q: And the IC50 [8]?
A: 0.347 µM

Q: And the IC50 [9]?
A: 0.147 µM

Q: And the IC50 [10]?
A: 2.41 µM

Q: What about the IC50 [11] of the same compound?
A: 0.297 µM

Q: What about the IC50 [12] of the same compound?
A: 3.17 µM

Q: And the IC50 [13]?
A: 0.212 µM

Q: What about the IC50 [14] of the same compound?
A: 0.661 µM

Q: What about the “Apoptosis IC50” value [15] of the same compound?
A: not achievable

Q: And the “Apoptosis IC50” value ([15]; listed as KPT185)?
A: Not achieved

Q: What about the “Apoptosis IC50” value [16] of the same compound?
A: not achievable

Q: And the “Apoptosis IC50” value ([16]; listed as KPT185)?
A: Not achieved

Q: And the Cell cycle effect [17]?
A: arrested in the G1 phase

Q: And the Cell cycle effect [18]?
A: arrested in the G1 phase

Q: What about the “Expression of TP53 protein” value ([19]; A375 (TP53 WT), 500 nM, nuclear localization at 16 hour) of the same compound?
A: upregulated

Q: And the CDKN1A expression ([19]; A375, 500 nM)?
A: upregulation

Q: And the “HDM2 expression in cytoplasmic and nuclear compartment” value ([19]; A375, KPT-185 at IC50, 16 hr, no detectable protein at basal level)?
A: robust expression of HDM2

Q: What about the “Nuclear accumulation of phosphorylated MAPK” value ([19]; A375, nuclear fraction, immunoblot) of the same compound?
A: accumulated in the nuclear compartment

Q: And the “TP53 or CDKN1A induction” value ([20]; CHL-1 (mutated TP53), 500 nM)?
A: only limited TP53 or CDKN1A induction

Q: What about the “Nuclear accumulation of phosphorylated MAPK” value ([20]; CHL-1, nuclear fraction, immunoblot) of the same compound?
A: accumulated in the nuclear compartment

Q: And the PARP cleavage [21]?
A: cleavage of PARP
